# Laboratory results from article doi:10.1101/2023.02.27.530254, “Large library docking for cannabinoid-1 receptor agonists with reduced side effects” (bioRxiv, 2024).
# Values joined by “and” are separate entries in the source; they are usually repeats but may differ in a detail not shown here. Identical values can stand only once.
# Key:
# [1] = test system: C56BL/6 mice; assay: Acute thermal pain tests (tail flick, hot plate, Hargreaves); type: in vivo, mouse; conditions: for tail flick latency of co-injection with morphine (3.0 mg/kg, i.p.) versus morphine alone: 0.05 and 0.1 mg/kg; for analgesic effect under CB1R knockout or AM251 (5.0 mg/kg) pre-treatment: tail flick assay; for lowest dose with significant analgesia (latencies above baseline): tail flick, hot plate and Hargreaves tests, i.p.
# [2] = test system: C56BL/6 mice; assay: Acetone test of cold allodynia after SNI; type: in vivo, mouse; conditions: for effect on SNI-induced cold allodynia (number of paw withdrawals): acetone test
# Procedure: Under isoflurane anesthesia, two of the three branches of the sciatic nerve were ligated and transected distally, leaving the sural nerve intact. Behavior was tested 7 to 14 days after injury.
# Mice were placed on a wire mesh and thirty min after an i.p. injection of the compounds we applied a drop (50 μL) of acetone on the ventral aspect of the hindpaw, 5 times every 30 sec. We recorded the number of nocifensive behaviors (paw lifts/licks/shakes/bites) over the 5 applications.
# [3] = test system: C56BL/6 mice; assay: Open field test of hypolocomotion; type: in vivo, mouse; conditions: for motor effect versus vehicle at analgesic doses: open field and rotarod tests
# Procedure: Thirty minutes after i.p. injection, mice were placed in the center of a round open-field (2 feet diameter) and their exploratory behavior recorded over the next 15 minutes. Distance traveled was used to represent open field behavior.
# [4] = test system: C56BL/6 mice; assay: Catalepsy test (vertical wire mesh); type: in vivo, mouse; conditions: for cataleptic behavior: analgesic doses (0.2 or 0.5 mg/kg), 30 minutes or 1-hour post-injection; for concentration window between anti-allodynia or analgesia versus catalepsy and sedation, maximum: depending on the nociceptive behavior
# Procedure: Thirty and 60 minutes after an i.p. injection of the compounds, mice were placed on a vertical wire mesh and the latency to move all four paws was recorded.
# [5] = test system: C56BL/6 mice; assay: Body temperature by telemetric probe; type: in vivo, mouse; conditions: body temperature over 150 minutes
# Procedure: Body temperature (BT) was measured using a telemetric probe device (HD-X10; Data Science International). Briefly, under anesthesia, the probe device was placed in the mouse abdomen and a subcutaneous tunnel was created from the neck to the abdominal skin, through which a catheter (connected to the probe) was pulled and then inserted into the left carotid artery. Three weeks later, the implanted mice were singly housed in a cage that was placed on top of the DSI receiver (for probe signal detection). […] Data were acquired using the Ponemah Telemetry acquisition software (DSI) and percent changes were presented relative to each mouse’s baseline.
# [6] = target: T1, hCB1 (Homo sapiens, UniProt P21554); assay: Lance Ultra cAMP accumulation assay (inhibition of forskolin-stimulated cAMP), CHO cells; type: cell-based; parameters: expressed in transfected cells; conditions: for Emax: CHO, read-out: hCB1 Lance Ultra cAMP Emax [95% CI]
# Procedure: The inhibition of forskolin-stimulated cAMP accumulation assays was carried out using PerkinElmer’s Lance Ultra cAMP kit following the manufacturer’s protocol. In brief, CHO cells stably expressing human CB1R were harvested by incubation with Versene (ThermoFisher Scientific, Waltham, MA) for 10 min, washed once with Hank’s Balanced Salt Solution, and resuspended in stimulation buffer at ~200 cells/μL density. The ligands at eight different concentrations (0.001–10,000 nM) in stimulation buffer (5 μL) containing forskolin (2 μM final concentration) were added to a 384-well plate followed by the cell suspension (5 μL; ~1000 cells/well). The plate was incubated for 30 min at room temperature. Eu-cAMP tracer (5 μL) and Ulight-anti-cAMP (5 μL) working solutions were then added to each well, and the plate was incubated at room temperature for an additional 60 min. Results were measured on a Perkin-Elmer EnVision plate reader. The EC50 values were determined by nonlinear regression analysis using Prism software (GraphPad Software, Inc., San Diego, CA) and are expressed as the mean of three experiments, each performed in triplicate.
# [7] = target: T1, hCB1; assay: Tango β-arrestin-2 recruitment assay, HTLA cells; type: cell-based; parameters: expressed in transfected cells; conditions: for Emax: HTLA, read-out: hCB1 Tango ß-arrestin recruitment Emax [95% CI]
# Procedure: (§1) The Tango β-arrestin-2 recruitment assays were performed as described. In brief, HTLA cells were transiently transfected with human CB1R or CB2R Tango DNA construct overnight in DMEM supplemented with 10 % FBS, 100 μg ml−1 streptomycin and 100 U ml−1 penicillin. The transfected cells were then plated into poly-L-lysine-coated 384-well white clear-bottom cell culture plates in DMEM containing 1% dialysed FBS at a density of 10,000–15,000 cells per well. After incubation for 6 h, the plates were added with drug solutions prepared in DMEM containing 1% dialysed FBS for overnight incubation. On the day of assay, medium and drug solutions were removed and 20 μl per well of BrightGlo reagent (Promega) was added. The plates were further incubated for 20 min at room temperature and counted using the Wallac TriLux Microbeta counter (PerkinElmer). The results were analysed using GraphPad Prism 9.1. Each experiment was performed in triplicate and functional […] values were determined from the mean of three independent experiments.
# [8] = target: T2, hCB2 (Homo sapiens, UniProt P34972); assay: Tango β-arrestin-2 recruitment assay, HTLA cells; type: cell-based; parameters: expressed in transfected cells; host or cells: HTLA (transient); conditions: for Emax: HTLA, read-out: hCB2 Tango ß-arrestin recruitment Emax [95% CI]
# Procedure: as §1
# [9] = target: T2, hCB2; assay: TRUPATH BRET2 GoA dissociation assay, HEK293T; type: cell-based; parameters: expressed in transfected cells; host or cells: HEK293T (transient); conditions: HEK-293T, read-out: hCB2 BRET2 + GoA Emax [95% CI]
# Procedure: […]. GoA dissociation BRET2 assays were performed as previously described with minor modifications. In brief, HEK293T cells were co-transfected overnight with human CB2 receptor, GαoA-Rluc, Gβ3, and Gγ9-GFP2 constructs. After 18–24 hours, the transfected cells were seeded into poly-L-lysine-coated 384-well white clear-bottom cell culture plates at a density of 15,000–20,000 cells and incubated with DMEM containing 1% dialyzed FBS, 100 U mL−1 of penicillin and 100 μg ml−1 of streptomycin for another 24 hours. The next day, the medium was aspirated and washed once with 20 μL of assay buffer (1× HBSS, 20 mM HEPES, 0.1% BSA, pH 7.4). Then, 20 μL of drug buffer containing coelenterazine 400a (Nanolight Technology) at 5 μM final concentration was added to each well and incubated for 5 minutes, followed by the addition of 10 μL of 3X designated drug buffer for 5 minutes. Then, 10 μL of 4X final concentrations of ligands were added for 5 minutes. […] BRET ratio was computed as the ratio of the GFP2 emission to RLuc8 emission. […] Each experiment was performed in triplicate and functional IC50 values were determined from the mean of four independent experiments.
# T1 sequence (P21554 whole entry): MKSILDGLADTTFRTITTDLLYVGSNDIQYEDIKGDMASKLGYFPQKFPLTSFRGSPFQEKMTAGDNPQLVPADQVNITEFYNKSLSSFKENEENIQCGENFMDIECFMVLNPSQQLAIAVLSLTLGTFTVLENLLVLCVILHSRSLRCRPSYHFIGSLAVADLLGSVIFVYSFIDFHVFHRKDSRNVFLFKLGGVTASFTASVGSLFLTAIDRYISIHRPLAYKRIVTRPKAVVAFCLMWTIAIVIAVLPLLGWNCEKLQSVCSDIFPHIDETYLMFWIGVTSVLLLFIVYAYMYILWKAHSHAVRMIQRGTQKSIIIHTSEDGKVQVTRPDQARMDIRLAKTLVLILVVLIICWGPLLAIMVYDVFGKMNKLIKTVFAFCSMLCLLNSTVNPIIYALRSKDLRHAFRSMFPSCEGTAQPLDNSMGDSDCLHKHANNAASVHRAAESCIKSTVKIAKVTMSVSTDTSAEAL
# T2 sequence (P34972 whole entry): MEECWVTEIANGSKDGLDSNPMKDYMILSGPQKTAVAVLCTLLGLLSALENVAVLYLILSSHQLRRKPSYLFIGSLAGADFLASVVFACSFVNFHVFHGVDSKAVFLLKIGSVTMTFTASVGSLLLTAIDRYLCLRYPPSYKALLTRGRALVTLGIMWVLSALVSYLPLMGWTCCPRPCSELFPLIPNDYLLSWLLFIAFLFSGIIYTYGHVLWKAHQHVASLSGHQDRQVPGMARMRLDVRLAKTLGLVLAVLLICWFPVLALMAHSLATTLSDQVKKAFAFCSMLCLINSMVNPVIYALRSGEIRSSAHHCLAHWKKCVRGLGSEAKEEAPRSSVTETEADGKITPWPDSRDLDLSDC
Structure (SMILES),"tail flick latency of co-injection with morphine (3.0 mg/kg, i.p.) versus morphine alone [1]",analgesic effect under CB1R knockout or AM251 (5.0 mg/kg) pre-treatment [1],lowest dose with significant analgesia (latencies above baseline) [1] [mg/kg],effect on SNI-induced cold allodynia (number of paw withdrawals) [2],motor effect versus vehicle at analgesic doses [3],cataleptic behavior [4],"concentration window between anti-allodynia or analgesia versus catalepsy and sedation, maximum [4]","concentration window between anti-allodynia or analgesia versus catalepsy and sedation, typical ([4]; mouse, in vivo)","dose at which catalepsy was recorded ([4]; mouse, in vivo)",hypothermia compared to baseline and vehicle [5],EC50 [6] [µM],Emax [6] [%],EC50 [7] [µM],Emax [7] [%],EC50 [8] [µM],Emax [8] [%],Emax [9] [%],other results
COC(=O)C(C)(NC(=O)c1cc(C)n(-c2cccc(C(F)(F)F)c2)n1)c1cccs1 (stereo not shown) [‘4042],significantly longer tail flick latencies,completely blocked,0.1,strongly reduced,no significant differences,did not induce cataleptic behavior,up to a twenty-fold,five- to ten-fold,> 1.0 mg/kg,induced hypothermia,0.0033,78,0.0107,102,0.0339,28,29,decrease of analgesic effects by CB2R knockout or SR-144528 (1.0 mg/kg) ([1]; tail flick or Hargreaves assays): neither; window between analgesia and both sedation and catalepsy ([4]; typical): 5–10 fold
COC(=O)C(NC(=O)c1cc(C)n(-c2cccc(C(F)(F)F)c2)n1)c1cccs1 (stereo not shown) [‘60154],–,–,–,–,–,–,–,–,–,–,0.316,67,0.794,39,3.34,21,31,–
COC(=O)[C@@](C)(NC(=O)c1cc(C)n(-c2cccc(C(F)(F)F)c2)n1)c1cccs1 [‘1350],significantly longer tail flick latencies,completely blocked,0.1,strongly reduced,–,did not induce cataleptic behavior,up to a twenty-fold,five- to ten-fold,> 1.0 mg/kg and 1 mg/kg,induced hypothermia,0.0016,77,–,–,–,–,–,"dose with significant anti-allodynia ([2]; acetone test for cold pain): 0.05 mg/kg; dose showing locomotor deficits ([3]; open field test): 0.2 mg/kg; window between anti-allodynia and catalepsy ([4]; tail-flick and hot-plate, 0.1 mg/kg vs 1 mg/kg highest tested dose): at least a ten-fold; hCB1 Lance Ultra cAMP Emax [95% CI] [6]: 78%"
"CCCCCCC(C)(C)c1ccc([C@@H]2C[C@H](O)CC[C@H]2CCCO)c(O)c1 [CP-55,940, reference compound]",–,–,–,strongly reduced,caused motor impairment in both the rotarod and open field tests,–,–,–,–,induced hypothermia,–,85,–,100,–,100,99,"dose with increased latencies ([1]; Hargreaves test): 0.2 mg/kg; dose with increased latencies ([1]; tail flick test): 0.5 mg/kg; dose at which catalepsy was recorded ([4]; C56BL/6, mouse, in vivo, intraperitoneal): 0.2 mg/kg; window between analgesia and catalepsy ([4]; mouse, in vivo): no window"
